Where two headings read alike, the source gives them in different places.
Assays:
[1] = tested on: pecan trees exhibiting severe mouse-ear; type: in vivo; conditions: early April foliar spray at late parachute stage, treatments as in Example 8, orchard transplants, subsequent shoot growth, scale 1-10
[2] = tested on: 1-year-old 'Desirable' pecan seedlings potted in mouse-ear orchard soil; experiment: October foliar copper or nickel at 0-8X on potted greenhouse pecan seedlings, mouse-ear rated in spring; type: in vivo, pecan [Carya illinoinensis (Wangenh.) K. Koch]; conditions: autumn foliar copper 1X-8X, X = about 1.98 g copper sulfate per liter
[3] = tested on: severely mouse-eared 'Desirable' pecan trees; type: in vivo; conditions: October foliar spray till run-off, NiSO4.6H2O about 3.5 g/L or CuSO4.5H2O about 4 g/L with urea and surfactant, orchard transplants, rated following May, scale 1 = no symptoms to 10 = most severe
pecans with mouse-ear = experiment: Inventors' orchard observations of soil or foliar copper, phosphorus, sulfur on mouse-ear; type: in vivo, pecan [Carya illinoinensis (Wangenh.) K. Koch]; conditions: for effect on mouse-ear, soil application of high amounts: 1st generation orchard site
[4] = tested on: pecan seedlings exhibiting severe nickel deficiency, i.e., mouse-ear; type: in vivo, pecan [Carya illinoinensis (Wangenh.) K. Koch]; conditions: foliar spray in the spring during bud break, tested 0-1000 ppm

O.O.O.O.O.O=S(=O)([O-])[O-].[Cu+2] [Copper, CuSO4.5H2O] was tested, and the “Mouse-ear Severity (Class)” value [1] was 8.1 a Class, the “Mouse-ear Severity (Class)” value ([1]; listed as copper) was “about 8.1 Class” and the “effect on mouse-ear severity the following spring” value [2] was “failed to correct mouse-ear and actually increased severity of mouse-ear as the concentration of applied copper increased”. The “Mouse-ear Severity (Class)” value [3] was 7.6 a Class, the “Mouse-ear Severity (Class)” value ([3]; listed as copper) was 7.6 Class and the “effect on mouse-ear, soil applied at time of transplanting” value (pecans with mouse-ear; 2nd generation site) was “corrects mouse-ear on one 2nd generation site”. For the same compound, the “effect on mouse-ear, foliar applications” value (pecans with mouse-ear; in vivo) was “little or no curative influence on mouse-ear severity” and the “effect on mouse-ear, topical application to the soil” value (pecans with mouse-ear; trees with mild to moderate mouse-ear on a 1st generation site) was “largely cured of mouse-ear by the 3rd year”.

In the case of [P] [phosphorus], the “effect on mouse-ear, soil application of high amounts” value (pecans with mouse-ear) is reported as “corrected mouse-ear symptoms three years after application”.

For S1SSSSSSS1 [sulfur], the “effect on mouse-ear, soil application of high amounts” value (pecans with mouse-ear) was “corrected mouse-ear symptoms three years after application”.

In the case of nickel lignosulfonate, the “nickel concentration at which foliar application corrected mouse-ear / nickel deficiency” value [4] is reported as ≥ 10 ppm.

From US20050245397A1, “Use of nickel to correct growth disorders in plants” (priority 2004, published 2005)
